Patent publication US20140228407A1, “TETRA-PYRIDINE COMPOUNDS AND COMPOSITION FOR PROTECTING CELLS, TISSUES AND ORGANS AGAINST ISCHEMIA-REPERFUSION INJURY” (YISSUM RESEARCH DEVELOPMENT COMPANY OF THE HEBREW …, priority 2011, published 2014)

Key:
[1] = tested on: neonate rat cardiomyocyte cells; experiment: Hypoxia in neonatal rat cardiomyocyte cultures, propidium iodide (PI) staining; format: cell-based; settings: after 3.5 hours of reoxygenation
Procedure: Rat hearts (1-2 days old) were sterilely removed and bathed three times in Ca^2+- and Mg^2+-free PBS to remove excess blood cells. The hearts were minced to small fragments and then agitated in a proteolytic enzyme-RDB solution prepared from a fig tree extract as described previously (Brik et al., 1990; Shneyvays et al., 2001). The RDB was diluted 1:200 in PBS at 25° C. for a few cycles of 10 min each. The supernatant suspension containing dissociated cells, to which medium containing 10% horse serum was added, was centrifuged at 500 g for 5 min. After centrifugation, the supernatant phase was discarded, and cells were resuspended in Dulbecco's modified Eagle medium supplemented with 10% heat-inactivated horse serum and 0.5% chick embryo extract. […]
Cultured cardiomyocytes were incubated with propidium iodide (5 μg/ml) (Molecular Probes, Eugene, Oreg.) in PBS for 30 min at 37° C., and propidium iodide (PI) staining was performed by incubating the cells with PI (5 μg/ml) (Molecular Probes, Eugene, Oreg.) in PBS for 30 min at 37° C. in order to differentiate between dead and survived cells following hypoxia (PI-fluorescent stain only nucleus of damaged cardiomyocytes). Thereafter, cells were bathed with PBS twice, and the cell fluorescence was measured through excitation at 485 nm and emission at 635 nm. […]

[2] = tested on: model of ischemia/reperfusion in the CD rat; experiment: Mortality and adverse changes in Phase B of rat ischemia/reperfusion study; format: in vivo
Procedure: This study was conducted to evaluate the effects of the Compound #6 on cardiac function, infarct size, and Troponin I levels in a model of ischemia/reperfusion in the CD® (CR1CD® (SD)) rat. Phase A was conducted for toxicity evaluation purposes. In Phase B (the efficacy phase), two treatment groups of eight male rats were administered Compound #6 at dose levels of 0.2 and 2 mg/kg via intravenous infusion following myocardial infarction. The 2 mg/kg dose of Compound #6 was administered intravenously via a slow infusion starting 3 to 14 minutes prior to reperfusion and continuing for 20 minutes to 20 minutes and 32 seconds, which was approximately 6 to 17 minutes after reperfusion (depending on the infusion start time). The 0.2 mg/kg dose of Compound #6 was administered intravenously via a slow infusion starting 10 minutes prior to reperfusion and continuing for 30 minutes to 30 minutes and 30 seconds, which was approximately 20 minutes after reperfusion.
The animals were placed on mechanical ventilation and not intubated. Once anesthetized, the animal was placed in a right lateral recumbency, an arterial catheter or polyethylene tube was placed in the carotid artery for monitoring blood pressure and a thoracotomy was performed. The left coronary artery (LCA) was identified. […] In Phase A, the animals were recovered from anesthesia and evaluated for 4 days. […]

[3] = tested on: model of ischemia/reperfusion in the CD rat; experiment: Rat model of ischemia/reperfusion, cardiovascular monitoring (blood pressure, heart rate; Phase B); format: in vivo
Procedure: The animals in Phase B were monitored for selected cardiovascular endpoints from at least 15 minutes prior to acute myocardial infarction until at approximately 1 hour post reperfusion. Blood samples for the evaluation of Troponin I were collected from all surviving Phase B animals prior to coronary artery occlusion and at termination. At study termination, the Phase B animals were submitted to necropsy for limited necropsy examinations and infarct analysis.
In Phase B, Compound #6 was administered once on Day 0 via intravenous infusion at dose levels of 0.2 and 2 mg/kg. The doses were administered at a dose volume of 1 mL/kg (0.05 [2 mg/kg] or 0.033 [0.2 mg/kg] mL/kg/minute). Two control groups received the vehicle (saline) or the vehicle for Compound #6 (10% (w/v) 2-hydroxypropyl-beta-cyclodextrin and 100 mM sodium chloride in deionized water) in the same manner as the 2 mg/kg treated group. The vehicles and 2 mg/kg Compound #6 were administered intravenously via a slow infusion starting 3 to 14 minutes prior to reperfusion and continuing for 20 minutes to 20 minutes and 32 seconds, which was approximately 6 to 17 minutes after reperfusion (depending on the infusion start time). The 0.2 mg/kg Compound #6 was administered intravenously via a slow infusion starting 10 minutes prior to reperfusion and continuing for 30 minutes to 30 minutes and 30 seconds, which was approximately 20 minutes after reperfusion. The positive control article, Erythropoietin, was administered at 5000 IU/kg via a bolus intravenous injection. The positive control article dose was administered at a dose volume of 2.5 mL/kg. The positive control was administered via a 3 to 60 second injection at 5 minutes prior to reperfusion.
In Phase B, animals were anesthetized for monitoring of selected cardiovascular parameters. For experimentation, the blood pressure catheter implanted in the carotid artery was attached to an external transducer and data acquisition was started. Blood pressure (systolic, diastolic, and mean arterial) and heart rate (derived from blood pressure) were monitored from at least 15 minutes prior to acute myocardial infarction (AMI) until at least 1 hour after reperfusion. Individual animal cardiovascular data tables are not reported but are maintained in the study file.

Cc1ccc(CN(CCN(Cc2ccc(C)cn2)Cc2ccc(C)cn2)Cc2ccc(C)cn2)nc1 [Compound #6]
protection by PI staining, 100 nM versus other concentrations of the same compound ([1]; 100 nM): improve protection vs. other #6 concentrations
protection from hypoxic injury by PI nuclei staining compared with 1 μM TPEN, FIG. 1B ([1]; all concentrations 1 μM, 300 nM, 100 nM and 30 nM): better protection than 1 μM of TPEN
differences in mortality rates between saline animals and treated animals (Phase B) ([2]; 0.2 and 2 mg/kg vs saline): suggest a cardioprotective effect
animals that died between 3 and 4 hours post reperfusion (Phase B) ([2]; Group 5, 0.2 mg/kg): two
mean arterial pressures after reperfusion ([3]; 0.2 mg/kg, within 5-10 minutes of reperfusion): increased
time at which blood pressure reached peak levels post reperfusion ([3]; 2 mg/kg, approximately 5 minutes following completion of the infusion): approximately 20 minutes
heart rate ([3]; 0.2 and 2.0 mg/kg): unaffected
blood pressures during infusion ([3]; both dose levels (0.2 and 2.0 mg/kg), returned to levels comparable to vehicle animals after infusion): slightly elevated
